The values that follow come from PubChem BioAssay AID504606 (National Center for Advancing Translational Sciences (NCATS), 2011).

Values after ≈ are worked out from the molar mass of the structure shown.

For this data set, the system named is kinetic aqueous solubility, PBS pH 7.4, LC-UV/MS. The experiment in a line: Inhibitors of HPGD: Aqueous Solubility Profiling. As to conditions: active compounds read high.

For the compound `Cc1cccc(-n2cnc3cc(C(=O)N4CCCCC4)ccc32)c1`, the solubility (in general, how much of the substance goes into solution per volume) is 3 µM (≈ 0.958 µg/mL).
Then `Cc1cc(-c2nnc3n2CCCCC3)c(C)n1-c1ccccc1`, with 35.9 µM (≈ 11 µg/mL).
